Reference: publication PMC5578999, “Novel quinolone chalcones targeting colchicine-binding pocket kill multidrug-resistant cancer cells by inhibiting tubulin activity and MRP1 function” (Scientific Reports, 2017)

How the values were obtained:
Experiment in all cases: NCI-60 SRB screen
Type in all cases: cell-based
DU-145 = tested on: DU-145
HCT-15 = tested on: HCT-15
MDA-MB-231/ATCC = tested on: MDA-MB-231/ATCC
NCI-H226 = tested on: NCI-H226
OVCAR-8 = tested on: OVCAR-8
SF-268 = tested on: SF-268
SK-OV-3 = tested on: SK-OV-3
SR = tested on: SR
SW-620 = tested on: SW-620
T-47D = tested on: T-47D
U251 = tested on: U251
UACC-62 = tested on: UACC-62
[1] = Homo sapiens, read-out: LC50 (the source's name)

## COc1ccc2[nH]c(=O)c(/C=C/C(=O)c3ccccc3OC)cc2c1 [CTR-20, (E)-6-Methoxy-3-(3-(2-methoxyphenyl)-3-oxoprop-1-enyl) quinolin-2(1H)-one]
DU-145
  Log10GI50: -6.28 Molar
  Log10LC50: -5.26 Molar
  Log10TGI: -5.71 Molar
  TGI: 1.96E-6 Molar
DU-145; 1.00E-5 Molar
  Growth Percent: 10.76%
DU-145; Homo sapiens
  GI50: 0.529 µM
DU-145; [1]
  CC50: 5.47 µM
DU-145; Log10 Concentration -4.0
  Percent Growth: -93%
DU-145; Log10 Concentration -5.0
  Percent Growth: -79%
DU-145; Log10 Concentration -6.0
  Percent Growth: 33%
DU-145; Log10 Concentration -7.0
  Percent Growth: 95%
DU-145; Log10 Concentration -8.0
  Percent Growth: 98%
HCT-15
  Log10GI50: -6.40 Molar
  Log10LC50: -5.08 Molar
  Log10TGI: -5.69 Molar
  TGI: 2.05E-6 Molar
HCT-15; 1.00E-5 Molar
  Growth Percent: 11.32%
HCT-15; Homo sapiens
  GI50: 0.395 µM
  LC50: 8.29 µM
HCT-15; Log10 Concentration -4.0
  Percent Growth: -85%
HCT-15; Log10 Concentration -5.0
  Percent Growth: -57%
HCT-15; Log10 Concentration -6.0
  Percent Growth: 26%
HCT-15; Log10 Concentration -7.0
  Percent Growth: 86%
HCT-15; Log10 Concentration -8.0
  Percent Growth: 95%
MDA-MB-231/ATCC
  Log10GI50: -5.84 Molar
  Log10LC50: -4.40 Molar
  Log10TGI: -4.96 Molar
  TGI: 1.10E-5 Molar
MDA-MB-231/ATCC; 1.00E-5 Molar
  Growth Percent: 0.32%
MDA-MB-231/ATCC; Homo sapiens
  GI50: 1.44 µM
MDA-MB-231/ATCC; [1]
  CC50: 39.6 µM
MDA-MB-231/ATCC; Log10 Concentration -4.0
  Percent Growth: -86%
MDA-MB-231/ATCC; Log10 Concentration -5.0
  Percent Growth: 4%
MDA-MB-231/ATCC; Log10 Concentration -6.0
  Percent Growth: 59%
MDA-MB-231/ATCC; Log10 Concentration -7.0
  Percent Growth: 102%
MDA-MB-231/ATCC; Log10 Concentration -8.0
  Percent Growth: 102%
NCI-H226
  Log10GI50: -5.48 Molar
  Log10LC50: > -4.00 Molar
  Log10TGI: -4.73 Molar
  TGI: 1.85E-5 Molar
NCI-H226; 1.00E-5 Molar
  Growth Percent: 38.93%
NCI-H226; Homo sapiens
  GI50: 3.34 µM
NCI-H226; [1]
  CC50: > 100 µM
NCI-H226; Log10 Concentration -4.0
  Percent Growth: -47%
NCI-H226; Log10 Concentration -5.0
  Percent Growth: 17%
NCI-H226; Log10 Concentration -6.0
  Percent Growth: 86%
NCI-H226; Log10 Concentration -7.0
  Percent Growth: 99%
NCI-H226; Log10 Concentration -8.0
  Percent Growth: 96%
OVCAR-8
  Log10GI50: -6.06 Molar
  Log10LC50: -4.46 Molar
  Log10TGI: -4.94 Molar
  TGI: 1.16E-5 Molar
OVCAR-8; 1.00E-5 Molar
  Growth Percent: 1.18%
OVCAR-8; Homo sapiens
  GI50: 0.874 µM
OVCAR-8; [1]
  CC50: 34.4 µM
OVCAR-8; Log10 Concentration -4.0
  Percent Growth: -99%
OVCAR-8; Log10 Concentration -5.0
  Percent Growth: 7%
OVCAR-8; Log10 Concentration -6.0
  Percent Growth: 46%
OVCAR-8; Log10 Concentration -7.0
  Percent Growth: 109%
OVCAR-8; Log10 Concentration -8.0
  Percent Growth: 113%
SF-268
  Log10GI50: -6.16 Molar
  Log10LC50: -4.15 Molar
  Log10TGI: -4.98 Molar
  TGI: 1.05E-5 Molar
SF-268; 1.00E-5 Molar
  Growth Percent: 9.36%
SF-268; Homo sapiens
  GI50: 0.69 µM
SF-268; [1]
  CC50: 70.4 µM
SF-268; Log10 Concentration -4.0
  Percent Growth: -59%
SF-268; Log10 Concentration -5.0
  Percent Growth: 1%
SF-268; Log10 Concentration -6.0
  Percent Growth: 42%
SF-268; Log10 Concentration -7.0
  Percent Growth: 93%
SF-268; Log10 Concentration -8.0
  Percent Growth: 92%
SK-OV-3
  Log10GI50: -5.65 Molar
  Log10LC50: -4.44 Molar
  Log10TGI: -4.89 Molar
  TGI: 1.28E-5 Molar
SK-OV-3; 1.00E-5 Molar
  Growth Percent: 6.12%
SK-OV-3; Homo sapiens
  GI50: 2.23 µM
SK-OV-3; [1]
  CC50: 36.2 µM
SK-OV-3; Log10 Concentration -4.0
  Percent Growth: -99%
SK-OV-3; Log10 Concentration -5.0
  Percent Growth: 12%
SK-OV-3; Log10 Concentration -6.0
  Percent Growth: 70%
SK-OV-3; Log10 Concentration -7.0
  Percent Growth: 99%
SK-OV-3; Log10 Concentration -8.0
  Percent Growth: 87%
SR
  Log10GI50: -7.18 Molar
  Log10LC50: > -4.00 Molar
  Log10TGI: -4.99 Molar
  TGI: 1.03E-5 Molar
SR; 1.00E-5 Molar
  Growth Percent: 2.69%
SR; Homo sapiens
  GI50: 0.0656 µM
  LC50 (50% lethal concentration): > 100 µM
SR; Log10 Concentration -4.0
  Percent Growth: -13%
SR; Log10 Concentration -6.0
  Percent Growth: 21%
SR; Log10 Concentration -7.0
  Percent Growth: 41%
SR; Log10 Concentration -8.0
  Percent Growth: 92%
SW-620
  Log10GI50: -6.47 Molar
  Log10LC50: -4.31 Molar
  Log10TGI: -5.65 Molar
  TGI: 2.24E-6 Molar
SW-620; 1.00E-5 Molar
  Growth Percent: 8.40%
SW-620; Homo sapiens
  GI50: 0.335 µM
  LC50 (50% lethal concentration): 49.4 µM
SW-620; Log10 Concentration -4.0
  Percent Growth: -58%
SW-620; Log10 Concentration -5.0
  Percent Growth: -31%
SW-620; Log10 Concentration -6.0
  Percent Growth: 17%
SW-620; Log10 Concentration -7.0
  Percent Growth: 87%
SW-620; Log10 Concentration -8.0
  Percent Growth: 98%
T-47D
  Log10GI50: -5.98 Molar
  Log10LC50: -4.32 Molar
  Log10TGI: -4.93 Molar
  TGI: 1.18E-5 Molar
T-47D; 1.00E-5 Molar
  Growth Percent: -2.02%
T-47D; Homo sapiens, T47D
  GI50: 1.06 µM
T-47D; Homo sapiens, T47D, read-out: LC50 (the source's name)
  CC50: 47.9 µM
T-47D; Log10 Concentration -4.0
  Percent Growth: -76%
T-47D; Log10 Concentration -5.0
  Percent Growth: 6%
T-47D; Log10 Concentration -6.0
  Percent Growth: 51%
T-47D; Log10 Concentration -7.0
  Percent Growth: 90%
T-47D; Log10 Concentration -8.0
  Percent Growth: 84%
U251
  Log10GI50: -6.28 Molar
  Log10LC50: -5.38 Molar
  Log10TGI: -5.77 Molar
  TGI: 1.70E-6 Molar
U251; 1.00E-5 Molar
  Growth Percent: 5.14%
U251; Homo sapiens, U-251
  GI50: 0.521 µM
  LC50: 4.21 µM
U251; Log10 Concentration -4.0
  Percent Growth: -99%
U251; Log10 Concentration -5.0
  Percent Growth: -98%
U251; Log10 Concentration -6.0
  Percent Growth: 29%
U251; Log10 Concentration -7.0
  Percent Growth: 103%
U251; Log10 Concentration -8.0
  Percent Growth: 102%
UACC-62
  Log10GI50: -6.32 Molar
  Log10LC50: -4.75 Molar
  Log10TGI: -5.53 Molar
  TGI: 2.97E-6 Molar
UACC-62; 1.00E-5 Molar
  Growth Percent: 25.73%
UACC-62; Homo sapiens
  GI50: 0.478 µM
UACC-62; [1]
  CC50: 17.9 µM
UACC-62; Log10 Concentration -4.0
  Percent Growth: -95%
UACC-62; Log10 Concentration -5.0
  Percent Growth: -35%
UACC-62; Log10 Concentration -6.0
  Percent Growth: 31%
UACC-62; Log10 Concentration -7.0
  Percent Growth: 90%
UACC-62; Log10 Concentration -8.0
  Percent Growth: 94%
